Reference: PubChem BioAssay (NCI)
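A five-concentration, 48-hour dose response in 96-well plates underlies each endpoint, interpolated linearly between surrounding concentrations. Abbreviation: GI50, concentration required for 50% inhibition of growth. TGI: total growth inhibition.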

Assays:
Experiment in all cases: DTP human tumour cell line panel, 48 h
[1] = test system: COLO 205 colon
[2] = test system: RXF 393 renal
[3] = test system: SF-539 CNS
[4] = test system: SK-OV-3 ovarian
[5] = test system: HCT-116 colon
[6] = test system: SF-268 CNS
[7] = test system: OVCAR-8 ovarian
[8] = test system: MDA-MB-435
[9] = test system: DMS 273 small cell lung
[10] = test system: SNB-78 CNS

Row | Compound | GI50 [1] [µM] | TGI [1] [µM] | GI50 [2] [µM] | TGI [2] [µM] | GI50 [3] [µM] | TGI [3] [µM] | GI50 [4] [µM] | TGI [4] [µM] | GI50 [5] [µM] | TGI [5] [µM] | GI50 [6] [µM] | TGI [6] [µM] | GI50 [7] [µM] | TGI [7] [µM] | GI50 [8] [µM] | TGI [8] [µM] | TGI [9] [µM] | TGI [10] [µM]
1 | O=S(=O)(NCCCNc1nccc(-c2c(-c3ccc(O)cc3)nc3sccn23)n1)c1ccc(F)cc1 | 0.0527 | 2.19 | 2.74 | > 100 | 2.04 | 13.9 | 2.12 | 8.88 | 1.25 | 4.77 | 2.94 | 14.7 | 1.57 | 13.3 | 0.245 | 4.76 | – | –
2 | COC(=O)CCC(NC(=S)N/N=C(\C)c1cnc2ccccc2n1)C(=O)OC (configuration not stated) | – | 5.37 | – | 86 | – | > 100 | – | > 100 | – | 38.6 | – | > 100 | – | > 100 | – | – | > 100 | > 100
3 | O=c1c2c(=NCCN3CCCC3)cc3c(=O)n(CCCN4CCOCC4)c(=O)c4c(-c5ccc(CN6CCCC6)cc5)cc(c(O)n1CCCN1CCOCC1)c2c4-3 | 0.0641 | 0.327 | 0.0204 | 0.0779 | 0.0617 | 0.274 | 0.086 | 1.43 | 0.0101 | 0.209 | 0.0781 | 0.567 | < 0.0255 | 2.24 | 0.0395 | 0.147 | – | –
4 | Cn1c2c(c3ccccc31)CCN(CCCCN1CCCCC1)C2=O | – | > 100 | – | > 100 | – | > 100 | – | > 100 | – | > 100 | – | > 100 | – | > 100 | – | – | > 100 | > 100
5 | O=C(N/C(=C\c1ccc(Cl)cc1)c1nc2ccccc2[nH]1)c1ccccc1 | – | 35.6 | – | 42.7 | – | 31.1 | – | 79.4 | – | 29.1 | – | 38.5 | – | 52.8 | – | – | 42.9 | 85.4
6 | C/C(=N\NC(=S)N1CCCCC1)c1ccccn1 | < 0.01 | 0.041 | 0.295 | 1.79 | 0.257 | 6.87 | 0.213 | 1.94 | < 0.01 | 1.52 | 0.0762 | 12.3 | < 0.01 | 2.42 | 0.208 | 5.89 | – | –
7 | O=Nc1ccc(O)c(=O)cc1 | 1.08 | 3.45 | 0.572 | 1.59 | 2.67 | 7.48 | 16.2 | 37.3 | 0.961 | 3.49 | 3.43 | 10.6 | 2.82 | 11 | 3.28 | 13.2 | – | –
8 | CCN(CC)c1cccc2c1/C(=N/O)CCCC2 | – | > 100 | – | > 100 | – | – | – | > 100 | – | > 100 | – | > 100 | – | > 100 | – | – | > 100 | > 100
9 | COc1ccc2c(c1OC)C[C@@H]1c3c(cc4c(c3-2)OCO4)CCN1C | – | 40.3 | – | 66.4 | – | 50 | – | 58.4 | – | 47.3 | – | > 100 | – | > 100 | – | > 100 | – | –
10 | COc1cc(Nc2nc3cc(N)cc(N)c3nc2-c2ccccc2)cc(OC)c1OC | 14 | 27.1 | 14.4 | 34.4 | 14.8 | 28.9 | 23 | 57.8 | 15.4 | 34.1 | 18.1 | 60.8 | 15.3 | 34.9 | 7.35 | 24.4 | – | –
11 | CC(C)OP(=O)(OC(C)C)/C(Cl)=N/Nc1ccc([N+](=O)[O-])cc1 | – | > 100 | – | – | – | > 100 | – | – | – | > 100 | – | > 100 | – | > 100 | – | – | > 100 | > 100
12 | C/C(=C1/N=C(c2cc([N+](=O)[O-])ccc2Cl)N(c2cccc(C)c2)C1=O)c1cc2ccccc2oc1=O | – | > 100 | – | > 100 | – | – | – | > 100 | – | > 100 | – | > 100 | – | > 100 | – | – | > 100 | > 100
13 | COC[C@@H](N=C1NC(=O)/C(=C/c2ccc3ncccc3c2)S1)c1ccccc1 | 10.8 | > 25 | 6.47 | > 24.2 | 7.36 | > 24 | 9.35 | > 25 | 8.73 | > 25 | 11.8 | > 25 | 10.2 | > 25 | 9.12 | > 25 | – | –
14 | O=C1C2Nc3ccccc3SC2C(=O)N1c1ccc(Br)cc1 (configuration not stated) | – | > 100 | – | 61.8 | – | > 100 | – | 61.1 | – | – | – | > 100 | – | > 100 | – | – | > 100 | 99.1
15 | CCN1C(=S)N(c2ccccc2)C2NC(=S)N(/N=C/C=C/c3ccccc3OC)C21 (configuration not stated) | 0.435 | 2.16 | 0.189 | 0.65 | 0.253 | 0.732 | 0.647 | > 100 | 0.36 | > 100 | 0.706 | > 91 | 0.487 | > 100 | 0.0775 | 0.337 | – | –
16 | O=c1[nH]c2ccccc2c2ccccc12 | > 100 | > 100 | > 100 | > 100 | > 100 | > 100 | 23.6 | > 100 | > 100 | > 100 | > 100 | > 100 | > 100 | > 100 | > 100 | > 100 | – | –
17 | COc1ccc(/C=C(/C#N)C(N)=O)c(OC)c1 | – | > 100 | – | > 100 | – | > 100 | – | > 100 | – | > 100 | – | > 100 | – | > 100 | – | 48.5 | – | –
